Ends that are not written are not given here.
Tests used:
[1] = system: mice infected with H3N2 influenza (A/x31) and challenged with poly I:C; assay: Model of ARDS associated to influenza A virus (IAV) infection with Poly I:C challenge, BAL cells, cytokines, lung viral titre; format: in vivo; details: for Lymphocyte infiltration / Macrophage infiltration / Neutrophil infiltration: SEQ ID NO:1 80-800 μg/Kg iv q.d., Dex 10 mg/kg ip q.d.; for BAL Lymphocytes / BAL Macrophages / BAL Neutrophils: IAV/Poly I:C, 48 hrs after Poly I:C
Description: Mice were infected intranasally with a H3N2 strain of influenza (A/x31; 1×10^3 pfu). Three days after infection (time of peak viral load in the lung), animals received a dose of the viral mimetic polyinosinic-polycytidylic acid (poly I:C) or vehicle (PBS). Initially, dose response and time course studies with Poly I:C were done to establish conditions to show exacerbated lung inflammation after viral challenge (30 μg/animal and 48 hrs after Poly I:C challenge, respectively). SEQ ID NO:1 (80-800 μg/Kg) or vehicle were administered q.d. intravenously, 15 min before Poly I:C and 24 hrs later. Positive control Dexamethasone (Dex) was administered q.d. intraperitoneally (10 mg/kg) 1 hr before poly I:C challenge and 24 hrs later. 48 hrs after Poly I:C challenge, bronchoalveolar lavage (BAL) fluid was collected for differential cell counts and to measure cytokines using a multiplex immunoassay. Lung tissue was also collected to determine the viral titre.

[2] = system: ovalbumin sensitised BALB/c mice; details: mouse, in vivo
[3] = system: dendritic cells from CD14+ monocytes of healthy donors; format: cell-based, human; details: 400 ng/mL + LPS/IFNγ
[4] = system: HDM-induced pulmonary inflammation in Balb/C mice; assay: House dust mite (HDM)-induced pulmonary inflammation, 3 week i.n. HDM sensitisation model, BAL cell influx and cytokines; format: in vivo
Description: The objective of the study was to investigate the inhibitory effects of 3 different concentrations of the peptides in a saline solution on house dust mite (HDM)-induced pulmonary inflammation in Balb/C mice using a 3 week intranasal (i.n.) HDM sensitisation model. Results are shown for SEQ ID NO: 1. This study also looked at time point effects of SEQ ID NO: 1; in addition to 7 day post HDM challenge, a further time point, 4 h post a second HDM challenge (14 days after the first HDM challenge), was investigated to assess the effects of SEQ ID NO: 1 on remission of the allergic response.
A 3 week sensitisation and challenge model was applied where n=90 female Balb/C mice of approximately 6-8 weeks of age, approximately 20-25 g at start of study were used.
Following 11 days' acclimatisation all mice received 25 μg (total protein) HDM delivered i.n. 5 days/week for 3 weeks. HDM sensitisation was carried out each day of dosing and all intranasal dosing was performed where the mice were lightly anaesthetised using isoflurane.
Two weeks after the final HDM sensitisation dose all mice received a single 50 μL i.n. dose of a saline solution of the peptide or saline (0.9% w/v Sodium Chloride) vehicle solution. For SEQ ID NO: 1, dose solutions were 0.02 μg/kg, 0.2 μg/kg and 2 μg/kg. 15 minutes post peptide or saline vehicle dose all mice received a single 50 uL challenge administered i.n. of saline (0.9% w/v Sodium Chloride) or 100 μg HDM.
Some groups of animals received a second 50 μL i.n. administered dose of either saline or HDM 100 μg dose four weeks post sensitisation. Animals were then euthanised 4 hrs post second challenge (corresponding to 14 days post dosing).
The lungs were lavaged via the trachea with 1 mL of BAL (bronchoalveolar lavage) fluid. Samples were placed on wet ice (4° C.) and a differential cell count using a Sysmex XT2000i vet cell analyser was performed before the BAL sample was centrifuged at 1300 rcf for 7 min. A 200 μL BAL supernatant sample was put in a polypropylene U bottom 96 well plate and frozen at −20° C. for subsequent cytokine analysis using a standard MSD protocol.
Data analysis was performed using Graphpad PRISM 6. The statistical tests applied to determine statistical significance were analysis of variance (ANOVA) followed by a post-hoc test or an unpaired T-test.

[5] = system: THP-1 differentiated macrophages; assay: IL-10 release from LPS stimulated macrophages (alphaLISA); format: cell-based, human; details: 1 nM; top LPS doses 1-10 μg/mL; 6 hours after LPS stimulation
Description: THP-1 monocytic human cells were differentiated into macrophages with 50 nM phorbol myristate acetate for 48 hrs on a 96 well plate (100K cells/well).
Macrophages were stimulated with increasing concentrations of bacterial lipopolysaccharide (LPS 10^−6-10 μg/mL) in the presence or absence of SEQ ID NO:1 (1 nM). 30 μL of cell media was sampled at 6 hours after LPS stimulation and an IL-10 alphaLISA was run to measure the release of IL-10.

[6] = system: animal model of allergic airway inflammation; details: disclosed in WO2009/106819; cited from earlier work
[7] = 48 hrs after Poly I:C challenge
[8] = 2 μg/kg i.n. single dose, 7 day time point, compared to saline/HDM
[9] = 2 μg/kg i.n. single dose, 14 day time point, 4 hrs post second HDM challenge, compared to saline/HDM
[10] = 2 μg/kg i.n., 14 days time point, compared to saline/HDM
[11] = 48 hrs after Poly I:C challenge, multiplex immunoassay

C[C@@H]1C[C@H]2[C@@H]3CCC4=CC(=O)C=C[C@]4(C)[C@@]3(F)[C@@H](O)C[C@]2(C)[C@@]1(O)C(=O)CO [Dex, Dexamethasone, reference compound]
Lymphocyte infiltration [1, 7]: no effect
Macrophage infiltration [1, 7]: no effect
Neutrophil infiltration [1, 7]: no effect
BAL Lymphocytes ([1]; 10 mg/kg ip): 9.4 ± 0.7 ×10^4/mL
BAL Macrophages ([1]; 10 mg/kg ip): 40.90 ± 0.2 ×10^4/mL
BAL Neutrophils ([1]; 10 mg/kg ip): 35.7 ± 2.6 ×10^4/mL

DGSVVVNKVSEL-NH2 [SEQ ID NO:3]
BAL eosinophil number [2]: significantly reduced
BAL total number of cells [2]: significantly reduced

DGSVVVNKVSELPAGHGLNVNTLSYGDLAAD-OH [SEQ ID NO:1]
IL-10 gene expression (LPS/IFNγ suppression) [3]: significantly attenuate the LPS/IFNγ suppression of the IL-10 gene
BAL level of eosinophils [4, 8]: decreased level of neutrophils and eosinophils compared to saline/HDM although not statistically significant
BAL level of neutrophils [4, 8]: decreased level of neutrophils and eosinophils compared to saline/HDM although not statistically significant
BAL level of eosinophils [4, 9]: significantly decreased level
BAL level of lymphocytes [4, 9]: significantly decreased level
BAL level of neutrophils [4, 9]: significantly decreased level
BAL level of IL-4 [4, 10]: significant inhibition
BAL level of IL-5 [4, 10]: significant inhibition
BAL level of IL-13 [4, 10]: significant inhibition
BAL release of anti inflammatory cytokine IL-10 ([4]; 0.02, 0.2, 2 μg/kg i.n., 7 days time point, compared to saline/HDM): significant dose response release
BAL infiltrated macrophages ([4]; SEQ ID NO:1 treated groups (0.02-2 μg/kg i.n.), 7 day time point): trend to an increase of infiltrated macrophages
Circulating levels of peptide [2]: no longer detectable
Intensity of the inflammatory response (BAL total cells, eosinophils) [2]: significantly reduced
Recruitment of eosinophils after OVA re-challenge [2]: efficient in inhibiting the recruitment of eosinophils
Release of IL-10 [5]: potentiated the release of IL-10
Lung viral titre [1, 7]: no significant effect
Lymphocyte infiltration [1, 7]: significantly and dose dependently reduced
Macrophage infiltration [1, 7]: significantly and dose dependently reduced
Neutrophil infiltration [1, 7]: significantly and dose dependently reduced
BAL G-CSF [1, 11]: significant suppression
BAL GM-CSF [1, 11]: significant suppression
BAL IFN-γ [1, 11]: significant suppression
BAL IL-1γ [1, 11]: significant suppression
BAL IL-6 [1, 11]: significant suppression
BAL IL-10 [1, 11]: significant suppression
BAL IL-17 [1, 11]: significant suppression
BAL KC/IL-8 [1, 11]: significant suppression
BAL MCP-1 [1, 11]: significant suppression
BAL MIP-1α [1, 11]: significant suppression
BAL MIP-3α [1, 11]: significant suppression
BAL TNF-α [1, 11]: significant suppression
BAL Lymphocytes ([1]; 80μ/kg iv): 7.4 ± 0.5 ×10^4/mL
BAL Macrophages ([1]; 80μ/kg iv): 40.3 ± 1.6 ×10^4/mL
BAL Neutrophils ([1]; 80μ/kg iv): 30 ± 2.2 ×10^4/mL
BAL Lymphocytes ([1]; 800μ/kg iv): 4.7 ± 0.5 ×10^4/mL
BAL Macrophages ([1]; 800μ/kg iv): 24.1 ± 1.6 ×10^4/mL
BAL Neutrophils ([1]; 800μ/kg iv): 15.3 ± 2.4 ×10^4/mL
Recruitment of eosinophils [6]: significantly reduce the recruitment of eosinophils
